The results in this text go back to PMC4774911, “Biochemical Screening of Five Protein Kinases from Plasmodium falciparum against 14,000 Cell-Active Compounds” (PLoS ONE, 2016).

Several values for one entry are separate records, joined by “and”; a condition that tells them apart may be missing. Equal values may be shown once.

Some targets named below: KIT (Homo sapiens, UniProt P10721); IRAK1 (Homo sapiens, UniProt P51617); PRKACA (Homo sapiens, UniProt P17612).
Test in all cases: biochemical
What all share (parameters): endogenous in cells; host or cells: K562 cell extract; species or system K562 (extract); replicate k of n = 2 (each experiment ID is one independent experiment; two experiment IDs per compound)
What all share (details): read-out: KDapp

The next test deals with T1, PLK4 (Homo sapiens, UniProt O00444).
T1 sequence (O00444 1-970): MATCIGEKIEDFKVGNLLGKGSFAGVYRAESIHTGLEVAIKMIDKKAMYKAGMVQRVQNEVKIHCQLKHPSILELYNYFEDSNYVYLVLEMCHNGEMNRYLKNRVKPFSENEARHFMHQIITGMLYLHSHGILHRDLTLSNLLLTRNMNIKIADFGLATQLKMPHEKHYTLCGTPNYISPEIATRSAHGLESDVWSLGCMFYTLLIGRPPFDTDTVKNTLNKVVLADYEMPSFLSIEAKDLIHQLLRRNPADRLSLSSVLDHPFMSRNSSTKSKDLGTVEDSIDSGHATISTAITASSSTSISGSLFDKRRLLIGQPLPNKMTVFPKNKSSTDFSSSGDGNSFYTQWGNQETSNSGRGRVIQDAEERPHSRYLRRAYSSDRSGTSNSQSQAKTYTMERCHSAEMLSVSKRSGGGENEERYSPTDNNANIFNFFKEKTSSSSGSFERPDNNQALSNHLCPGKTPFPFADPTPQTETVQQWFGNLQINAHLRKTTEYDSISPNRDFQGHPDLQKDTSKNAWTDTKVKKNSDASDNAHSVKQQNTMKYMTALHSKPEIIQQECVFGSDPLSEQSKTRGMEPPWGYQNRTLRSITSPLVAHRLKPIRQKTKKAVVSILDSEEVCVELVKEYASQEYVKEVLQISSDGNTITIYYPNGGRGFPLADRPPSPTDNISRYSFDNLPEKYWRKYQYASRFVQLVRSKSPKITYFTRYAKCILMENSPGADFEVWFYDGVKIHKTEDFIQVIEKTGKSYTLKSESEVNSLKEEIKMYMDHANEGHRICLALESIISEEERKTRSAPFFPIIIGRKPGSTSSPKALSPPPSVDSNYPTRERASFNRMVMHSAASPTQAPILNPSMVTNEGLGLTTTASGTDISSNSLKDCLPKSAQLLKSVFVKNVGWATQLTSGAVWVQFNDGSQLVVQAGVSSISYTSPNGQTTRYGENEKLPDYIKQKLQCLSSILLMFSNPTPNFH

Another test concerns the target T2, MARK4 (Homo sapiens, UniProt Q96L34).
T2 sequence (Q96L34 1-752): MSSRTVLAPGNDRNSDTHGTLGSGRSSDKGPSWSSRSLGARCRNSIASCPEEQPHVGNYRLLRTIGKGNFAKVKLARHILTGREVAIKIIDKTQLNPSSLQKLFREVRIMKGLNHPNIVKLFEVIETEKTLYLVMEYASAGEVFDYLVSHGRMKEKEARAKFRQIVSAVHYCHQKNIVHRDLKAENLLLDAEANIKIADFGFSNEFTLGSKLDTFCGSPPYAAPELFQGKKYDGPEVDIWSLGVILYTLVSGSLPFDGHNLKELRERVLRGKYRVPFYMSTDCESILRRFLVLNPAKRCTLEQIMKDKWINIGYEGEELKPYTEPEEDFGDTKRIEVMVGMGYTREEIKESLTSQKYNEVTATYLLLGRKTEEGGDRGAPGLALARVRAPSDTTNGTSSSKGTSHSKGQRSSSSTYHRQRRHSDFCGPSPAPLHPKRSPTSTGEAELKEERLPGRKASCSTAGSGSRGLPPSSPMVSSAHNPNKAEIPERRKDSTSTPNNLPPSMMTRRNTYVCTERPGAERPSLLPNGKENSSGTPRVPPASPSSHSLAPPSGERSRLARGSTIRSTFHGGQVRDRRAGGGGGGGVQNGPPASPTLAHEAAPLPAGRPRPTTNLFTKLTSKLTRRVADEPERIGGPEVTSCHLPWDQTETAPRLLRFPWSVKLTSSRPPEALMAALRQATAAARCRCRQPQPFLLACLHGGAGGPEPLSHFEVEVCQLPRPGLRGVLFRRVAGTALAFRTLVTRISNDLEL

Chain of IRAK1 (P51617 whole entry): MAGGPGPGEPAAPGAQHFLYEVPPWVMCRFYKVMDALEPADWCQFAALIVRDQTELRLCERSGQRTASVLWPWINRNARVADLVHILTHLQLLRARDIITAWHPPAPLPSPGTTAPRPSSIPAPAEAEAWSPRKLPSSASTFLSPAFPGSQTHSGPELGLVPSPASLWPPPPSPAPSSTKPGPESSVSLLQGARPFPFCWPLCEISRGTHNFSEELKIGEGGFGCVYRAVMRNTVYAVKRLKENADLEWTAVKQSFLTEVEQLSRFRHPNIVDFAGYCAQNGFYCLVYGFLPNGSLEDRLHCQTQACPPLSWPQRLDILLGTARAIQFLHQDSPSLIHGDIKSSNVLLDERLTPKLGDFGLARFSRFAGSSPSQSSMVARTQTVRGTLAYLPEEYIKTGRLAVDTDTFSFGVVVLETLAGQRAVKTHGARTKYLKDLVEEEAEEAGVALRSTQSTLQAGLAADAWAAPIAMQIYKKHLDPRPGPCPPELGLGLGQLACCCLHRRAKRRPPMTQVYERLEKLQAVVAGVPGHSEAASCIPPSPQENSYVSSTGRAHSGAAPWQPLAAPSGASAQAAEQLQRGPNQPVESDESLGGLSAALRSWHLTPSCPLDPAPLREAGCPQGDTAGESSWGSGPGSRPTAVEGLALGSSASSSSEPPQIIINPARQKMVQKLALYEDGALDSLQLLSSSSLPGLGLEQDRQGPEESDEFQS
Chain of KIT (P10721 whole entry): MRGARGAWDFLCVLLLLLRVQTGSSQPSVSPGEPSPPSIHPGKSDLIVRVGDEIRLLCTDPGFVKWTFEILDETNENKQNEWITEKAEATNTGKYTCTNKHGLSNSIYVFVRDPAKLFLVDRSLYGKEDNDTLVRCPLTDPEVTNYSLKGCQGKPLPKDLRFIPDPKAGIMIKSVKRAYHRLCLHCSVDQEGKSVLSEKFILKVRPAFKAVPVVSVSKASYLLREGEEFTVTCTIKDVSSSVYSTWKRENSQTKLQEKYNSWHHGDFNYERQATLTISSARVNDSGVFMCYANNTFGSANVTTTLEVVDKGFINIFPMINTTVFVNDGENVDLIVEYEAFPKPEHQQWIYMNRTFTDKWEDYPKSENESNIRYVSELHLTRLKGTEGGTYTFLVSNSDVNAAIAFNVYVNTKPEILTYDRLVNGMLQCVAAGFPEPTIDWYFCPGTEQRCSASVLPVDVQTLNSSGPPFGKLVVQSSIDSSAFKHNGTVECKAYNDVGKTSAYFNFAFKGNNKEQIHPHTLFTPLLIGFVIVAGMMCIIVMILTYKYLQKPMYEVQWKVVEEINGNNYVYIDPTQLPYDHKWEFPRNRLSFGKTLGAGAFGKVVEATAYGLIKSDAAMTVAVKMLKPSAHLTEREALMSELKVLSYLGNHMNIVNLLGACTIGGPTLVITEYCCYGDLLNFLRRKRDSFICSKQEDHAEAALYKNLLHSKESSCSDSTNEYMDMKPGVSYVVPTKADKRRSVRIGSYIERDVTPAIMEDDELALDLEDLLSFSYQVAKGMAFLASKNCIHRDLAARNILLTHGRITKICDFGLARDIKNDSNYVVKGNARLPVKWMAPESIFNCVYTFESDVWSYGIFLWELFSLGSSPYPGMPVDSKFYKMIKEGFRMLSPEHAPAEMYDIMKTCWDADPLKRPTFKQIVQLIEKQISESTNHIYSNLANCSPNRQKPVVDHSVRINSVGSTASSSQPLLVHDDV

As for `CN1CCN(c2ccc(Nc3ncc(C#N)c(Nc4ccccc4C(N)=O)n3)cc2)CC1.Cl` [TCMDC-134116], the Kd at KIT was 1100 nM; at PLK4 it was 53.9 nM and 69.2 nM; on IRAK1 it was 92.9 nM and 81.3 nM; on PRKACA, 1330 nM.
In the case of `CN(C)CC(O)COc1ccc(Nc2ncc([N+](=O)[O-])c(Nc3ccccc3O)n2)cc1.O=C(O)C(F)(F)F` (centres unmarked) [TCMDC-141399], on MARK4, the Kd was 6160 nM and 3900 nM.
